26 compounds from patent US7419969B2 (Bristol-Myers Squibb Company, priority 2004, dated 2008) can be followed below.

For the experiment, the target named is T1, HIV-integrase (Human immunodeficiency virus type 1 group M subtype B, UniProt P04585).
T1 construct: Recombinant integrase (0.26 ng) was incubated with the beads
Briefly: in-vitro activity against HIV-integrase (HIV Integrase Inhibition, SPA bead assay). The experiment is classed as biochemical. To be noted: Table 1a; recombinant integrase, activity class. In outline: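 Recombinant integrase (0.26 ng) pre-bound for 90 min at 37 °C to biotinylated substrate DNA on streptavidin SPA beads, then washed. Inhibitors added with 33P-labelled target DNA; reaction stopped with 10 mM EDTA. Scintillation CPM taken as integration signal.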
Broadly, the IC50 is the midpoint of a concentration-inhibition curve. In the case of `Cc1ncnn1-c1cc(F)ccc1CNC(=O)c1nc2n(c(=O)c1O)CCN(C)C21CCCC1` [Example 94, Spiro[cyclopentane-1,9′(6′H)-[4H]pyrazino[1,2-a]pyrimidine]-2′-carboxamide, N-[[4-fluoro-2-(5-methyl-1H-1,2,4-triazol-1-yl)phenyl]methyl]-7′,8′-dihydro-3′-hydroxy-8′-methyl-4′-oxo-], the IC50 lay in the range of 10 to 100 nM.

Take `CN1CCn2c(nc(C(=O)NCc3ccc(F)cc3)c(O)c2=O)C12CCCCC2` [Example 95, Spiro[cyclohexane-1,9′(6′H)-[4H]pyrazino[1,2-a]pyrimidine]-2′-carboxamide, N-[(4-fluorophenyl)methyl]-7′,8′-dihydro-3′-hydroxy-8′-methyl-4′-oxo-]: the IC50 fell in the range of 1 to 10 nM.

As to `CN1CCn2c(nc(C(=O)NCc3ccc(F)cc3-n3cncn3)c(O)c2=O)C12CCCCC2` [Example 96, Spiro[cyclohexane-1,9′(6′H)-[4H]pyrazino[1,2-a]pyrimidine]-2′-carboxamide, N-[[4-fluoro-2-(1H-1,2,4-triazol-1-yl)phenyl]methyl]-7′,8′-dihydro-3′-hydroxy-8′-methyl-4′-oxo-], the concentration for half-maximal inhibition (IC50) fell in the range of 1 to 10 nM.

Regarding `Cc1ncnn1-c1cc(F)ccc1CNC(=O)c1nc2n(c(=O)c1O)CCN(C)C21CCCCC1` [Example 97, Spiro[cyclohexane-1,9′(6′H)-[4H]pyrazino[1,2-a]pyrimidine]-2′-carboxamide, N-[[4-fluoro-2-(5-methyl-1H-1,2,4-triazol-1-yl)phenyl]methyl]-7′,8′-dihydro-3′-hydroxy-8′-methyl-4′-oxo-], the IC50 was 10 to 100 nM.

With `CN1CCn2c(nc(C(=O)NCc3ccc(F)cc3)c(O)c2=O)C12CCC2` [Example 98, Spiro[cyclobutane-1,9′(6′H)-[4H]pyrazino[1,2-a]pyrimidine]-2′-carboxamide, N-[(4-fluorophenyl)methyl]-7′,8′-dihydro-3′-hydroxy-8′-methyl-4′-oxo-], the IC50 was 1 to 10 nM.

On to `CN1CCn2c(nc(C(=O)NCc3ccc(F)cc3-n3cncn3)c(O)c2=O)C12CCC2` [Example 99, Spiro[cyclobutane-1,9′(6′H)-[4H]pyrazino[1,2-a]pyrimidine]-2′-carboxamide, N-[[4-fluoro-2-(1H-1,2,4-triazol-1-yl)phenyl]methyl]-7′,8′-dihydro-3′-hydroxy-8′-methyl-4′-oxo-], for which the IC50 lay within 1 to 10 nM.

Consider `Cc1ncnn1-c1cc(F)ccc1CNC(=O)c1nc2n(c(=O)c1O)CCN(C)C21CCC1` [Example 100, Spiro[cyclobutane-1,9′(6′H)-[4H]pyrazino[1,2-a]pyrimidine]-2′-carboxamide, N-[[4-fluoro-2-(5-methyl-1H-1,2,4-triazol-1-yl)phenyl]methyl]-7′,8′-dihydro-3′-hydroxy-8′-methyl-4′-oxo-], for which the IC50 lay within 10 to 100 nM.

`O=C(NCc1ccc(F)cc1-n1ccnn1)c1nc2n(c(=O)c1O)CCOC21CCC1` [Example 101, Spiro[cyclobutane-1,9′(4′H)-pyrimido[2,1-c][1,4]oxazine]-2′-carboxamide, N-[[4-fluoro-2-(1H-1,2,3-triazol-1-yl)phenyl]methyl]-6′,7′-dihydro-3′-hydroxy-4′-oxo-]: the IC50 was 1 to 10 nM.

For `Cc1nnn(-c2cc(F)ccc2CNC(=O)c2nc3n(c(=O)c2O)CCOC32CCC2)c1C` [Example 102, Spiro[cyclobutane-1,9′(4′H)-pyrimido[2,1-c][1,4]oxazine]-2′-carboxamide, N-[[2-(4,5-dimethyl-1H-1,2,3-triazol-1-yl)-4-fluorophenyl]methyl]-6′,7′-dihydro-3′-hydroxy-4′-oxo-], the concentration for half-maximal inhibition (IC50) is 10 to 100 nM.

For the compound `CC(C)(C)c1cn(-c2cc(F)ccc2CNC(=O)c2nc3n(c(=O)c2O)CCOC32CCC2)nn1` [Example 103, Spiro[cyclobutane-1,9′(4′H)-pyrimido[2,1-c][1,4]oxazine]-2′-carboxamide, N-[[2-[4-(1,1-dimethylethyl)-1H-1,2,3-triazol-1-yl]-4-fluorophenyl]methyl]-6′,7′-dihydro-3′-hydroxy-4′-oxo-], the IC50 is 10 to 100 nM.

`Cc1cnnn1-c1cc(F)ccc1CNC(=O)c1nc2n(c(=O)c1O)CCOC21CCC1` [Example 104, Spiro[cyclobutane-1,9′(4′H)-pyrimido[2,1-c][1,4]oxazine]-2′-carboxamide, N-[[4-fluoro-2-(5-methyl-1H-1,2,3-triazol-1-yl)phenyl]methyl]-6′,7′-dihydro-3′-hydroxy-4′-oxo-]: the concentration for half-maximal inhibition (IC50) lay within 1 to 10 nM.

As for `O=C(NCc1ccc(F)cc1N1CCOC1=O)c1nc2n(c(=O)c1O)CCOC21CCC1` [Example 105, Spiro[cyclobutane-1,9′(4′H)-pyrimido[2,1-c][1,4]oxazine]-2′-carboxamide, N-[[4-fluoro-2-(2-oxo-3-oxazolidinyl)phenyl]methyl]-6′,7′-dihydro-3′-hydroxy-4′-oxo-], the IC50 fell in the range of 1 to 10 nM.

In the case of `O=C(NCc1ccc(F)cc1N1CCC1=O)c1nc2n(c(=O)c1O)CCOC21CCC1` [Example 106, Spiro[cyclobutane-1,9′(4′H)-pyrimido[2,1-c][1,4]oxazine]-2′-carboxamide, N-[[4-fluoro-2-(2-oxo-1-azetidinyl)phenyl]methyl]-6′,7′-dihydro-3′-hydroxy-4′-oxo-], the IC50 is 1 to 10 nM.

For the compound `Cc1nnn(-c2cc(F)ccc2CNC(=O)c2nc3n(c(=O)c2O)CCCOC32CCC2)c1C` [Example 107, Spiro[cyclobutane-1,10′(4′H)-[6H]pyrimido[2,1-c][1,4]oxazepine]-2′-carboxamide, N-[[2-(4,5-dimethyl-1H-1,2,3-triazol-1-yl)-4-fluorophenyl]methyl]-7′,8′-dihydro-3′-hydroxy-4′-oxo-], the IC50 is 10 to 100 nM.

In the case of `Cc1ncn(-c2cc(F)ccc2CNC(=O)c2nc3n(c(=O)c2O)CCOC32COC2)n1` [Example 108, Spiro[oxetane-3,9′(4′H)-pyrimido[2,1-c][1,4]oxazine]-2′-carboxamide, N-[[4-fluoro-2-(3-methyl-1H-1,2,4-triazol-1-yl)phenyl]methyl]-6′,7′-dihydro-3′-hydroxy-4′-oxo-], the IC50 was 1 to 10 nM.

In the case of `O=C(NCc1ccc(F)cc1)c1nc2n(c(=O)c1O)CCOC21COC1` [Example 109, Spiro[oxetane-3,9′(4′H)-pyrimido[2,1-c][1,4]oxazine]-2′-carboxamide, N-[(4-fluorophenyl)methyl]-6′,7′-dihydro-3′-hydroxy-4′-oxo-], the IC50 was in the range of 1 to 10 nM.

Turning to `O=C(NCc1ccc(F)cc1-n1cncn1)c1nc2n(c(=O)c1O)CCOC21COC1` [Example 110, Spiro[oxetane-3,9′(4′H)-pyrimido[2,1-c][1,4]oxazine]-2′-carboxamide, N-[[4-fluoro-2-(1H-1,2,4-triazol-1-yl)phenyl]methyl]-6′,7′-dihydro-3′-hydroxy-4′-oxo-], the concentration for half-maximal inhibition (IC50) was 1 to 10 nM.

On to `CS(=O)(=O)c1cc(F)ccc1CNC(=O)c1nc2n(c(=O)c1O)CCOC21COC1` [Example 111, Spiro[oxetane-3,9′(4′H)-pyrimido[2,1-c][1,4]oxazine]-2′-carboxamide, N-[[4-fluoro-2-(methylsulfonyl)phenyl]methyl]-6′,7′-dihydro-3′-hydroxy-4′-oxo-], for which the 50% inhibitory concentration (IC50) was 10 to 100 nM.

For the compound `O=C(NCc1ccc(F)cc1-n1ccnn1)c1nc2n(c(=O)c1O)CCOC21CCOCC1` [Example 112, Spiro[4H-pyran-4,9′(4′H)-pyrimido[2,1-c][1,4]oxazine]-2′-carboxamide, N-[[4-fluoro-2-(1H-1,2,3-triazol-1-yl)phenyl]methyl]-2,3,5,6,6′,7′-hexahydro-3′-hydroxy-4′-oxo-], the IC50 lay in the range of 1 to 10 nM.

Take `O=C(NCc1ccc(F)cc1-n1ccnn1)c1nc2n(c(=O)c1O)CCOC21CCCC1` [Example 113, Spiro[cyclopentane-1,9′(4′H)-pyrimido[2,1-c][1,4]oxazine]-2′-carboxamide, N-[[4-fluoro-2-(1H-1,2,3-triazol-1-yl)phenyl]methyl]-6′,7′-dihydro-3′-hydroxy-4′-oxo-]: the IC50 is 1 to 10 nM.

With `O=C(NCc1ccc(F)cc1)c1nc2n(c(=O)c1O)CCCOC21CCOCC1` [Example 114, Spiro[4H-pyran-4,10′(4′H)-[6H]pyrimido[2,1-c][1,4]oxazepine]-2′-carboxamide, N-[(4-fluorophenyl)methyl]-2,3,5,6,7′,8′-hexahydro-3′-hydroxy-4′-oxo-], the IC50 was 1 to 10 nM.

As to `Cc1ncn(-c2cc(F)ccc2CNC(=O)c2nc3n(c(=O)c2O)CCCOC32CCC2)n1` [Example 123, Spiro[cyclobutane-1,10′(4′H)-[6H]pyrimido[2,1-c][1,4]oxazepine]-2′-carboxamide, N-[[4-fluoro-2-(3-methyl-1H-1,2,4-triazol-1-yl)phenyl]methyl]-7′,8′-dihydro-3′-hydroxy-4′-oxo-], the half-inhibitory concentration (IC50) lay in the range of 1 to 10 nM.

In the case of `Cc1ncn(-c2cc(F)ccc2CNC(=O)c2nc3n(c(=O)c2O)CCOC32CCC2)n1` [Example 124, Spiro[cyclobutane-1,9′(4′H)-pyrimido[2,1-c][1,4]oxazine]-2′-carboxamide, N-[[4-fluoro-2-(3-methyl-1H-1,2,4-triazol-1-yl)phenyl]methyl]-6′,7′-dihydro-3′-hydroxy-4′-oxo-], the concentration for half-maximal inhibition (IC50) fell in the range of 1 to 10 nM.

`O=C(NCc1ccccc1N1CCC1=O)c1nc2n(c(=O)c1O)CCOC21CCC1` [Example 125, Spiro[cyclobutane-1,9′(4′H)-pyrimido[2,1-c][1,4]oxazine]-2′-carboxamide, 6′,7′-dihydro-3′-hydroxy-4′-oxo-N-[[2-(2-oxo-1-azetidinyl)phenyl]methyl]-]: the IC50 lay within 1 to 10 nM.

Turning to `O=C(NCc1ccccc1N1CCOC1=O)c1nc2n(c(=O)c1O)CCOC21CCC1` [Example 126, Spiro[cyclobutane-1,9′(4′H)-pyrimido[2,1-c][1,4]oxazine]-2′-carboxamide, 6′,7′-dihydro-3′-hydroxy-4′-oxo-N-[[2-(2-oxo-3-oxazolidinyl)phenyl]methyl]-], the IC50 fell in the range of 1 to 10 nM.

For the compound `Cc1nc(C)n(-c2cc(F)ccc2CNC(=O)c2nc3n(c(=O)c2O)CCOC32CCC2)n1` [Example 127, Spiro[cyclobutane-1,9′(4′H)-pyrimido[2,1-c][1,4]oxazine]-2′-carboxamide, N-[[2-(3,5-dimethyl-1H-1,2,4-triazol-1-yl)-4-fluorophenyl]methyl]-6′,7′-dihydro-3′-hydroxy-4′-oxo-], the half-maximal inhibitory concentration (IC50) was in the range of 10 to 100 nM.
